Measured values as given in PMC11205194 (Marine Drugs, 2024).

Test system: SARS-CoV-2 3CLpro
Conditions: pH 7; for Inhibition of free 3CL protease by synthesized peptides: SD

Molecule | Inhibition of the 3CLpro control's enzymatic activity | Inhibition of free 3CL protease by synthesized peptides
COc1cccc2[nH]c(C(=O)N[C@@H](CC(C)C)C(=O)N[C@@H](C[C@@H]3CCNC3=O)C(=O)CO)cc12 [PF-00835231, reference compound] | 94.9% | 
EVLEFFKYIE [PEP 5] |  | 0.01 ± 3.8%
EVLEFFKYLE [PEP 7] |  | 7.6 ± 1.3%
VVGVVVY [PEP 1, Val-Val-Gly-Val-Val-Val-Tyr] |  | 9.3 ± 5.7%
